The test relates to RF strain of HIV-1. The experiment in a line: HIV-1 cell protection assay (XTT dye reduction). Format: cell-based. How it is done:
Example 61: HIV-1 Cell Protection Assay
The antiviral activities of potential modulator compounds (test compounds) were determined in HIV-1 cell protection assays using the RF strain of HIV-1, CEM-SS cells, and the XTT dye reduction method (Weislow, O.S. et al., J. Natl. Cancer Inst. 81: 577-586 (1989)). Subject cells were infected with HIV-1 RF virus at an moi of 0.025 to 0.819 or mock infected with medium only and added at 2 x 10^4 cells per well into 96 well plates containing half-log dilutions of test compounds. Six days later, 50 µl of XTT solution (1 mg/ml XTT tetrazolium and […] phenazine methosulfate) were added to the wells and the plates were reincubated for four hours. Viability, as determined by the amount of XTT formazan produced, was quantified spectrophotometrically by absorbance at 450 nm.
Data from CPE assays were expressed as the percent of formazan produced in compound-treated cells compared to formazan produced in wells of uninfected, compound-free cells. […] The therapeutic index was calculated by dividing the cytotoxicity (CC50) by the antiviral activity (EC50).

[1] abbreviates: Human immunodeficiency virus 1, CEM-SS, 144 h, CEM-SS cells infected with HIV-1 RF, six days, XTT formazan, read-out: EC50.
Where [2] appears, read: Human immunodeficiency virus 1, CEM-SS, 144 h.

Molecules are shown by their SMILES. Like-named read-outs stand apart in the source and are kept apart here.

With `O=c1c2ncc3c(ccn3Cc3ccc(F)cc3)c2ccn1O` [Example 1, 3-(4-Fluorobenzyl)-7-hydroxy-3,7-dihydro-6H-pyrrolo[2,3-c]-1,7-naphthyridin-6-one], the EC50 (in general, the concentration that produces a half-maximal response) under setting [1] turned out to be 0.0004 µM.
`O=C1c2ncc3c(ccn3Cc3ccc(F)cc3)c2CCN1O` [Example 2, 3-(4-Fluorobenzyl)-7-hydroxy-3,7,8,9-tetrahydro-6H-pyrrolo[2,3-c]-1,7-naphthyridin-6-one] had an EC50 under setting [2] of 0.0006 µM.
Turning to `O=C1c2ncc3c(ccn3Cc3ccc(F)cc3)c2CCCN1O` [Example 3, 3-(4-Fluorobenzyl)-7-hydroxy-7,8,9,1 0-tetrahydropyrrolo[3',2':4,5]pyrido[2,3-c]azepin-6(3H)-one], where the note is “CEM-SS cells infected with HIV-1 RF, six days, XTT formazan, read-out: EC50”, the EC50 is 0.029 µM.
As to `CN(C)Cc1cn(Cc2ccc(F)cc2)c2cnc3c(=O)n(O)ccc3c12` [Example 4, 1-[(dimethylamino)methyl]-3-(4-fluorobenzyl)-7-hydroxy-3,7-dihydro-6H-pyrrolo[2,3-c]-1,7-naphthyridin-6-one], the EC50 under setting [1] was 0.007 µM.
Turning to `NC(=O)[C@@H]1CCCN1Cc1cn(Cc2ccc(F)cc2)c2cnc3c(=O)n(O)ccc3c12` [Example 5, 1-{[3-(4-fluorobenzyl)-7-hydroxy-6-oxo-6,7-dihydro-3H-pyrrolo[2,3-c]-1,7-naphthyridin-1-yl]methyl}-L-prolinamide], the half-maximal effective concentration (EC50) under setting [1] worked out at 0.038 µM.
For `O=C1CN(Cc2cn(Cc3ccc(F)cc3)c3cnc4c(=O)n(O)ccc4c23)CCN1` [Example 6, 3-(4-fluorobenzyl)-7-hydroxy-1-[(3-oxopiperazin-1-yl)methyl]-3,7-dihydro-6H-pyrrolo[2,3-c]-1,7-naphthyridin-6-one], the EC50 under setting [1] came to 0.012 µM.
Regarding `CN1CCN(Cc2cn(Cc3ccc(F)cc3)c3cnc4c(=O)n(O)ccc4c23)CC1` [Example 7, 3-(4-fluorobenzyl)-7-hydroxy-1-[(4-methylpiperazin-1-yl)methyl]-3,7-dihydro-6H-pyrrolo[2,3-c]-1 ,7-naphthyridin-6-one], under setting [1], the EC50 stood at 0.008 µM.
As for `CCN1CCN(Cc2cn(Cc3ccc(F)cc3)c3cnc4c(=O)n(O)ccc4c23)CC1` [Example 8, 1-[(4-ethylpiperazin-1-yl)methyl]-3-(4-fluorobenzyl)-7-hydroxy-3,7-dihydro-6H-pyrrolo[2,3-c]-1,7-naphthyridin-6-one], the EC50 under setting [1] stood at 0.011 µM.
Still for that read-out and setting: the value for `O=c1c2ncc3c(c(CN4CCc5ccccc5C4)cn3Cc3ccc(F)cc3)c2ccn1O` [Example 10, 1-(3,4-dihydroisoquinolin-2(1H)-ylmethyl)-3-(4-fluorobenzyl)-7-hydroxy-3,7-dihydro-6H-pyrrolo[2,3-c]-1,7-naphthyridin-6-one] was 0.00041 µM; that for `CCCCCN(C)Cc1cn(Cc2ccc(F)cc2)c2cnc3c(=O)n(O)ccc3c12` [Example 11, 3-(4-fluorobenzyl)-7-hydroxy-1-{[methyl(pentyl)amino]methyl}-3,7-dihydro-6H-pyrrolo[2,3-c]-1,7-naphthyridin-6-one] was 0.003 µM.
As to `NC(=O)[C@H]1CCCN1Cc1cn(Cc2ccc(F)cc2)c2cnc3c(=O)n(O)ccc3c12` [Example 12, 1-{[3-(4-fluorobenzyl)-7-hydroxy-6-oxo-6,7-dihydro-3H-pyrrolo[2,3-c]-1,7-naphthyridin-1-yl]methyl}-D-prolinamide], the EC50 under setting [1] was determined as 0.004 µM.
`O=C1NCCC12CCN(Cc1cn(Cc3ccc(F)cc3)c3cnc4c(=O)n(O)ccc4c13)CC2` [Example 13, 3-(4-fluorobenzyl)-7-hydroxy-1-[(1-oxo-2,8-diazaspiro[4.5]dec-8-yl)methyl]-3,7-dihydro-6H-pyrrolo[2,3-c]-1,7-naphthyridin-6-one]: under setting [1], the EC50 turned out to be 0.013 µM.
Regarding `CCN(Cc1cn(Cc2ccc(F)cc2)c2cnc3c(=O)n(O)ccc3c12)C1CCCCC1` [Example 14, 1-{[cyclohexyl(ethyl)amino]methyl}-3-(4-fluorobenzyl)-7-hydroxy-3,7-dihydro-6H-pyrrolo[2,3-c]-1,7-naphthyridin-6-one], the EC50 under setting [1] came to 0.008 µM.
Consider `O=C(CN1CCN(Cc2cn(Cc3ccc(F)cc3)c3cnc4c(=O)n(O)ccc4c23)CC1)N1CCCC1` [Example 15, 3-(4-fluorobenzyl)-7-hydroxy-1-{[4-(2-oxo-2-pyrrolidin-1-ylethyl)piperazin-1-yl]methyl}-3,7-dihydro-6H-pyrrolo[2,3-c]-1,7-naphthyridin-6-one], for which the EC50 under setting [1] is 0.039 µM.
On to `CN(CCc1ccccn1)Cc1cn(Cc2ccc(F)cc2)c2cnc3c(=O)n(O)ccc3c12` [Example 16, 3-(4-fluorobenzyl)-7-hydroxy-1-{[methyl(2-pyridin-2-ylethyl)amino]methyl}-3,7-dihydro-6H-pyrrolo[2,3-c]-1,7-naphthyridin-6-one], for which the EC50 under setting [1] stood at 0.007 µM.
For the compound `O=C1CCCN1CC1(O)CCN(Cc2cn(Cc3ccc(F)cc3)c3cnc4c(=O)n(O)ccc4c23)CC1` [Example 18, 3-(4-fluorobenzyl)-7-hydroxy-1-({4-hydroxy-4-[(2-oxopyrrolidin-1-yl)methyl]piperidin-1-yl}methyl)-3,7-dihydro-6H-pyrrolo[2,3-c]-1,7-naphthyridin-6-one], under setting [1], the 50% effective concentration (EC50) stood at 0.067 µM.
The same measure, in the same setting: under `O=C1CCN(Cc2cn(Cc3ccc(F)cc3)c3cnc4c(=O)n(O)ccc4c23)CCN1` [Example 19, 3-(4-fluorobenzyl)-7-hydroxy-1-[(5-oxo-1,4-diazepan-1-yl)methyl]-3,7-dihydro-6H-pyrrolo[2,3-c]-1,7-naphthyridin-6-one] stands 0.015 µM.
For `NC(=O)[C@@H]1CCCN1S(=O)(=O)c1cn(Cc2ccc(F)cc2)c2cnc3c(=O)n(O)ccc3c12` [Example 20, 1-{[3-(4-fluorobenzyl)-7-hydroxy-6-oxo-6,7-dihydro-3H-pyrrolo[2,3-c]-1,7-naphthyridin-1-yl]sulfonyl}-L-prolinamide], under setting [1], the EC50 amounted to 0.39 µM.
Regarding `O=c1c2ncc3c(c(S(=O)(=O)NCCc4c[nH]c5ccccc45)cn3Cc3ccc(F)cc3)c2ccn1O` [Example 21, 3-(4-fluorobenzyl)-7-hydroxy-N-[2-(1 H-indol-3-yl)ethyl]-6-oxo-6,7-dihydro-3H-pyrrolo[2,3-c]-1,7-naphthyridine-1-sulfonamide], under setting [1], the EC50 is 0.48 µM.
Turning to `O=C1CN(S(=O)(=O)c2cn(Cc3ccc(F)cc3)c3cnc4c(=O)n(O)ccc4c23)CCN1` [Example 22, 3-(4-fluorobenzyl)-7-hydroxy-1-[(3-oxopiperazin-1-yl)sulfonyl]-3,7-dihydro-6H-pyrrolo[2,3-c]-1,7-naphthyridin-6-one], under setting [1], the EC50 was 0.045 µM.
The same measure, in the same setting: the value for `CN(C)S(=O)(=O)c1cn(Cc2ccc(F)cc2)c2cnc3c(=O)n(O)ccc3c12` [Example 23, 3-(4-fluorobenzyl)-7-hydroxy-N,N-dimethyl-6-oxo-6,7-dihydro-3H-pyrrolo[2,3-c]-1,7-naphthyridine-1-sulfonamide] was 0.004 µM; that for `O=c1c2ncc3c(c(S(=O)(=O)NCC(F)(F)F)cn3Cc3ccc(F)cc3)c2ccn1O` [Example 24, 3-(4-fluorobenzyl)-7-hydroxy-6-oxo-N-(2,2,2-trifluoroethyl)-6,7-dihydro-3H-pyrrolo[2,3-c]-1,7-naphthyridine-1-sulfonamide] was 0.022 µM; that for `O=c1c2ncc3c(c(S(=O)(=O)NCc4ccc(F)cc4)cn3Cc3ccc(F)cc3)c2ccn1O` [Example 25, N,3-bis(4-fluorobenzyl)-7-hydroxy-6-oxo-6,7-dihydro-3H-pyrrolo[2,3-c]-1,7-naphthyridine-1-sulfonamide] was 0.16 µM.
Compound `O=C(c1cn(Cc2ccc(F)cc2)c2cnc3c(=O)n(O)ccc3c12)N1CCCC1` [Example 26, 3-(4-fluorobenzyl)-7-hydroxy-1-(pyrrolidin-1-ylcarbonyl)-3,7-dihydro-6H-pyrrolo[2,3-c]-1,7-naphthyridin-6-one] registered an EC50 under setting [2] of 0.005 µM.
Consider `CC(=O)N1CCN(C(=O)c2cn(Cc3ccc(F)cc3)c3cnc4c(=O)n(O)ccc4c23)CC1` [Example 27, 1-[(4-acetylpiperazin-1-yl)carbonyl]-3-(4-fluorobenzyl)-7-hydroxy-3,7-dihydro-6H-pyrrolo[2,3-c]-1,7-naphthyridin-6-one], for which the EC50 under setting [2] is 0.019 µM.
On to `O=C(NCCc1cnccn1)c1cn(Cc2ccc(F)cc2)c2cnc3c(=O)n(O)ccc3c12` [Example 28, 3-(4-fluorobenzyl)-7-hydroxy-6-oxo-N-(2-pyrazin-2-ylethyl)-6,7-dihydro-3H-pyrrolo[2,3-c]-1,7-naphthyridine-1-carboxamide], for which a half-maximal effect under setting [2] (EC50) was put at 0.024 µM.
As to `O=C(NCc1ccccn1)c1cn(Cc2ccc(F)cc2)c2cnc3c(=O)n(O)ccc3c12` [Example 29, 3-(4-fluorobenzyl)-7-hydroxy-6-oxo-N-(pyridin-2-ylmethyl)-6,7-dihydro-3H-pyrrolo[2,3-c]-1,7-naphthyridine-1-carboxamide], the EC50 under setting [2] is 0.035 µM.
The same measure, in the same setting: the value for `O=C(NCC(F)(F)F)c1cn(Cc2ccc(F)cc2)c2cnc3c(=O)n(O)ccc3c12` [Example 30, 3-(4-fluorobenzyl)-7-hydroxy-6-oxo-N-(2,2,2-trifluoroethyl)-6,7-dihydro-3H-pyrrolo[2,3-c]-1,7-naphthyridine-1-carboxamide] was 0.013 µM.
Regarding `CC(C)(C)OC(=O)N1CCC(COCc2cn(Cc3ccc(F)cc3)c3cnc4c(=O)n(O)ccc4c23)CC1` [Example 32, tert-butyl 4-({[3-(4-fluorobenzyl)-7-hydroxy-6-oxo-6,7-dihydro-3H-pyrrolo[2,3-c]-1,7-naphthyridin-1-yl]methoxy)methyl)pip eridine-1-carboxylate], the EC50 under setting [1] is 0.006 µM.

For the origin of these results see patent publication EP1873155A1, “Inhibitors of the HIV integrase enzyme” (PFIZER INC., priority 2004, dated 2005).
